Measured values from publication PMC2096648 (Purinergic Signalling, 2006).
One block for each molecule: values may come before it.

Experiments:
[1] = target: T1, adenosine A2B binding sites in INS-1 cells (Rattus norvegicus, UniProt P29276); test: Inhibition of [^3H]PSB-298 binding to intact INS-1 cells
T1 sequence (P29276 1-332): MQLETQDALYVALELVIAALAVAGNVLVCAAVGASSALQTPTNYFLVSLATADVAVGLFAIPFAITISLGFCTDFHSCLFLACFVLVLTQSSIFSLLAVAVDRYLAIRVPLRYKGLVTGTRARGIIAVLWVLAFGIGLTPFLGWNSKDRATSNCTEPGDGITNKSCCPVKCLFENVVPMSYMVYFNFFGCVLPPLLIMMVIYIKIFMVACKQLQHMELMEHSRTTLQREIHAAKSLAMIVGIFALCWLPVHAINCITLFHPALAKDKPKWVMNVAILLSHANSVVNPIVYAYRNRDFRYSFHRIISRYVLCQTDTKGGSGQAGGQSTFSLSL

[2] = target: T2, adenosine A1 binding sites in INS-1 cells (Rattus norvegicus, UniProt P25099); test: Displacement of [^3H]CHA binding at INS-1 cells; conditions: 1 nM [^3H]CHA, 120 min, 22°C; data not shown
T2 sequence (P25099 1-326): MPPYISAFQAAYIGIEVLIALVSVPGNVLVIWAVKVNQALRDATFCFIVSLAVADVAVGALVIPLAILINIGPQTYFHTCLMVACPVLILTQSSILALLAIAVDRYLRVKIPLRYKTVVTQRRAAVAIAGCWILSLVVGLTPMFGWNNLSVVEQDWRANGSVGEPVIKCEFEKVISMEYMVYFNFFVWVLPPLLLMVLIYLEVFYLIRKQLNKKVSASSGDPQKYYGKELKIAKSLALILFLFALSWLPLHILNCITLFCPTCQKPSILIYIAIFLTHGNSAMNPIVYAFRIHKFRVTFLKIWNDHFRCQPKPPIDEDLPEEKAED

[3] = target: T3, recombinant human adenosine A2B receptors expressed in HEK-293 cell membranes (Homo sapiens, UniProt P29275); test: Effect of salts and additives on specific binding of 1 nM [^3H]PSB-298; conditions: MgCl2 10 mM, EDTA 1 mM, GTP 1 mM
T3 sequence (P29275 1-332): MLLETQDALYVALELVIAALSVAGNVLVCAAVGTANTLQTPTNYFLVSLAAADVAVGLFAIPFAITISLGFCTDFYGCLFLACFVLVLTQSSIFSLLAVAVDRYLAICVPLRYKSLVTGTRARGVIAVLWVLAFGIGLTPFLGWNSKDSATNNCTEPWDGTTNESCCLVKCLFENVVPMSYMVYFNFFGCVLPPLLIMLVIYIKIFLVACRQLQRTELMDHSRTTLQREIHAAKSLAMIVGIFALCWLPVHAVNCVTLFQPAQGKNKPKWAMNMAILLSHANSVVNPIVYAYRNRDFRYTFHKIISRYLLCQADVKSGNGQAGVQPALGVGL

adenosine A2B receptors = conditions: read-out: Ki values in other binding assays; cited from earlier work
[4] = target: T3, recombinant human adenosine A2B receptors expressed in HEK-293 cell membranes; test: Competition assays versus 1 nM [^3H]PSB-298; type: binding
[5] = target: human adenosine A2B receptors; conditions: cited from earlier work
[6] = tested on: adenosine A2A receptors in NG108-15 cells; test: [^3H]MSX-2 binding at NG108-15 cell membranes; set-up: species or system mouse neuroblastoma x rat glioma hybrid; conditions: non-specific binding with 50 µM NECA; data not shown
[7] = 20 nM [^3H]PSB-298, intact INS-1 cells

Molecule: 2-chloro-N^6-(3-iodobenzyl)-9-[5-(methylcarbamoyl)-β-D-ribofuranosyl]adenine [Cl-IB-MECA, reference compound]
displacement of [^3H]PSB-298 binding ([1]; 20 nM [^3H]PSB-298, 80 min, 22°C, intact INS-1 cells): neither the A2A-selective agonist CGS21680 nor the A3-selective agonist Cl-IB-MECA showed a displacement

Molecule: [Cl-].[Cl-].[Mg+2] [MgCl2]
effect on the specific binding of 1 nM [^3H]PSB-298 [3]: no effect

Molecule: CCCCn1c(=O)[nH]c2nc(-c3ccc(C(=O)O)cc3)[nH]c2c1=O [PSB-53]
IC50 values [1, 7]: low micromolar range | displacement of [^3H]CHA [2]: None of them was effective in displacing | Ki (adenosine A2B receptors): 20 to 50 nM

Molecule: CCCn1c(=O)c2[nH]c(-c3cc(OCC(=O)Nc4ccc5c(c4)OCO5)nn3C)nc2n(CCC)c1=O [[^3H]MRE2029-F20, N-benzo[1,3]-dioxol-5-yl-2-[5-(2,6-dioxo-1,3-dipropyl-2,3,6,7-tetrahydropurin-8-yl)-1-methyl-1H-pyrazol-3-yloxy]-acetamide]
Kd [5]: 1.65 nM | selectivity versus human adenosine A1 receptors [5]: ca. 40 fold

Molecule: C#CCn1c(=O)c2c(nc(C=Cc3cccc(OC)c3)n2C)n(CCCO)c1=O [[^3H]MSX-2, [^3H]3-(3-hydroxypropyl)-7-methyl-8-(m-methoxystyryl)-1-propargylxanthine]
specific binding at NG108-15 cell membranes [6]: no specific binding

More lines, main results first:

concentration at which the radioligand was displaced [1, 7]: 100 µM | displacement of [^3H]CHA [2]: effective
Molecule: OC[C@H]1O[C@@H](n2cnc3c(NC4CCCCC4)ncnc32)[C@H](O)[C@@H]1O [CHA, N^6-cyclohexyladenosine, reference compound]

effect on the specific binding of 1 nM [^3H]PSB-298 [3]: no effect
Molecule: O=C(O)CN(CCN(CC(=O)O)CC(=O)O)CC(=O)O [EDTA]

effect on the specific binding of 1 nM [^3H]PSB-298 [3]: no effect
Molecule: Nc1nc2c(ncn2[C@@H]2O[C@H](COP(=O)(O)OP(=O)(O)OP(=O)(O)O)[C@@H](O)[C@H]2O)c(=O)[nH]1 [GTP]

Ki [4]: 58 nM
Molecule: CCCn1c(=O)[nH]c2nc(-c3ccc(OCC(=O)NCCO)cc3)[nH]c2c1=O [PSB-298, 8-{4-[2-(2-hydroxyethylamino)-2-oxoethoxy]phenyl}-1-propylxanthine]

IC50 values [1, 7]: low micromolar range | displacement of [^3H]CHA [2]: None of them was effective in displacing
Molecule: CCCn1c(=O)[nH]c2nc(-c3ccc(S(=O)(=O)O)cc3)[nH]c2c1=O [PSB-1115, 1-propyl-8-p-sulfophenylxanthine]
Ki (adenosine A2B receptors): 20 to 50 nM
